For assay [1], the system named is MMP-1. Put plainly: Abundance of MMP-1 secreted in culture medium of NHDF dermal fibroblasts (pro-MMP-1 ELISA). The settings on record: 2.5 ng/ml, 72 h, control without treatment=100%. It is filed as cell-based, human. Here is the method: The study consists in evaluating, on NHDF (Normal Human Dermal Fibroblasts) dermal fibroblasts, the effects of the essential oil of Laserpitium Siler L. of example 1, at two concentrations, over the following parameters: • the synthesis of type I procollagen by ELISA (CICP, Cross-linked C-telopeptides of Type I collagen) after 72 h of contact, and • the abundance of MMP-1 secreted in the culture medium after 72 h of contact.
The study was carried out on NHDF human dermal fibroblasts (ATCC, CRL-2522, origin: foreskin) cultured in monolayer in a medium of DMEM (Invitrogen, 31885-049) and antibiotics (penicillin/streptomycin, Invitrogen, 15140-122), and cultured in serum-free medium for studies on type I collagen and on MMP-1.
The fibroblasts were seeded in 24-well plates, 24 h before the treatment with the test and reference elements.
For the measurement of the synthesis/secretion of type I procollagen and for the quantification of MMP-1, the test elements and also the reference elements (TGF-β1 (Transforming Growth Factor-β1) for MMP-1 and vitamin C for CICP) were applied for 72 h in the absence of serum. […]
The quantification of MMP-1 was carried out with a specific kit (Human pro-MMP-1 Quantikine ELISA, R&D System), according to the instructions given by the supplier.

The subject of assay [2] is type I procollagen. In words: Synthesis/secretion of type I procollagen by ELISA (CICP) on NHDF dermal fibroblasts. It is filed as cell-based, human. The conditions noted are these: 100 μM, 72 h, control without treatment=100%. As for the experimental part:
The study consists in evaluating, on NHDF (Normal Human Dermal Fibroblasts) dermal fibroblasts, the effects of the essential oil of […]. of example 1, at two concentrations, over the following parameters: • the synthesis of type I procollagen by ELISA (CICP, Cross-linked C-telopeptides of Type I collagen) after 72 h of contact, and • the abundance of MMP-1 secreted in the culture medium after 72 h of contact. The study was carried out on NHDF human dermal fibroblasts (ATCC, CRL-2522, origin: foreskin) cultured in monolayer in a medium of DMEM (Invitrogen, 31885-049) and antibiotics (penicillin/streptomycin, Invitrogen, 15140-122), and cultured in serum-free medium for studies on type I collagen and on MMP-1. The fibroblasts were seeded in 24-well plates, 24 h before the treatment with the test and reference elements. For the measurement of the synthesis/secretion of type I procollagen and for the quantification of MMP-1, the test elements and also the reference elements (TGF-β1 (Transforming Growth Factor-β1) for MMP-1 and vitamin C for CICP) were applied for 72 h in the absence of serum. The supernatants of the cultures were harvested after 72 h of treatment with the active agents and the reference element (in this case, vitamin C at 1000 μM). These were frozen at -20° C. until the day of the analysis. […]

In assay [3] the test system is Collagen IV. In words: Production of collagen IV by normal human keratinocytes (in situ immunolabeling, image analysis). The conditions noted are these: TGF-β at 10 ng/ml, NHEK, 72 hours. It is filed as cell-based. Here is the method:
The purpose of this study was to evaluate the effects of the essential oil of Laserpitium Siler L. according to example 1 on the dermo-epidermal junction marker (Coll. IV) modulated during aging by immunohistochemistry techniques.
• Culture medium: Keratinocyte-SFM supplemented with: • Epidermal Growth Factor (EGF) 0.25 ng/ml • Pituitary extract (PE) 25 μg/ml • Gentamicin 25 μg/ml • Test medium: Keratinocyte-SFM supplemented with: • Gentamicin 25 μg/ml
Normal human keratinocytes (NHEK—Ref: K341) were seeded and cultured in a culture medium (Keratinocyte-SFM for 24 hours). The culture medium was replaced by the test medium containing, or not containing (control), the test compounds or reference compounds (TGF-β at 10 ng/ml), then the cells were incubated for 72 hours at 37° C., 5% CO2.
After incubation, the culture medium was removed and the cells were rinsed, fixed and permeabilized.
The cells were then labeled with the primary antibody targeted against the protein of interest (Collagen IV).
The relative quantification was carried out by image analysis after in situ immuno labeling.
The image acquisition was carried out with a high-resolution imaging system: INCell Analyser™ 1000.

Marks after values point to notes of the source that are not given here.

As to “TGF-β1: Transforming Growth Factor-β1, reference element for MMP-1”, the “MMP-1 (protein abundance)” value in assay [1] was found to be 47%***.

As to `O=C1O[C@H]([C@@H](O)CO)C(O)=C1O` [Vitamin C], in assay [2], the “CICP (protein abundance)” value is reported as 160%***.

In the case of “TGF-β: positive control / reference compound at 10 ng/ml in the collagen IV test”, the “increase in expression of collagen IV compared to the control” value in assay [3] came out at 594%.

The values are drawn from patent publication US10328018B2, “Cosmetic use of the essential oil of Laserpitium siler L. against the signs of aging of the skin and as a skin antioxidant” (L'OREAL, priority 2012, dated 2019).
